The source of these data is US20230287027A1, “ADJUVANT WITH TLR4 AGONIST ACTIVITY” (Sumitomo Pharma Co., Ltd, priority 2020, published 2023).

One assay deals with T1, mouse TLR4 (Mus musculus, UniProt Q9JHF9+Q9QUK6).
T1 construct: host or cells: HEK-Blue mTLR4 cell line
T1 sequence (Q9QUK6 26-835): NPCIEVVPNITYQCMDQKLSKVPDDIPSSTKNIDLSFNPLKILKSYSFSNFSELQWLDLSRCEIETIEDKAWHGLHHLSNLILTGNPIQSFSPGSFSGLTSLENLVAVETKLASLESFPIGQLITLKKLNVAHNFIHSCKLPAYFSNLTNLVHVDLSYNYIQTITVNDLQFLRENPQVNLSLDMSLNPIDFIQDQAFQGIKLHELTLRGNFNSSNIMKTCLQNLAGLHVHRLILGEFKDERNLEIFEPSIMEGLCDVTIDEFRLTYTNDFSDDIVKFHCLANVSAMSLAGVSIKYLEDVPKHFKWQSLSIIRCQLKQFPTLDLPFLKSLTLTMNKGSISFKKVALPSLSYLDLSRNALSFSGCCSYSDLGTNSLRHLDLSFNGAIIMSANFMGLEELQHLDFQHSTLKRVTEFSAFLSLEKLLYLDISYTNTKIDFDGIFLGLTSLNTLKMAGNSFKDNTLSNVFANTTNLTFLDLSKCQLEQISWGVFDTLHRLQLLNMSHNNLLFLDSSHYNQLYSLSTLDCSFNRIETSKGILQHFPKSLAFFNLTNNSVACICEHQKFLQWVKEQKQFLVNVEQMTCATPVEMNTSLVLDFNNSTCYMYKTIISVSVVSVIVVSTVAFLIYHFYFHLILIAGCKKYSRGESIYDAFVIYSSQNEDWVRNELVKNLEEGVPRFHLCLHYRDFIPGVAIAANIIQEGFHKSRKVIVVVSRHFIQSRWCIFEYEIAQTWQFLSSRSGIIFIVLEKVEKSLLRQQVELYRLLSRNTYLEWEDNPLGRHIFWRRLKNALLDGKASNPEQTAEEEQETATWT
T1 sequence (Q9JHF9 19-160): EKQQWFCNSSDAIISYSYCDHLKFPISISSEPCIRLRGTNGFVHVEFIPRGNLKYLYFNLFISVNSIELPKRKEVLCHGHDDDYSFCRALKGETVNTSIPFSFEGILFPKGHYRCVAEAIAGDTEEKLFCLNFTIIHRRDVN
The experiment in a line: Mouse TLR4 reporter gene assay (Test 2). The format is cell-based. As to conditions: HEK-Blue mTLR4 cell line, SEAP reporter, 37° C. 16-20 hours, 0.1% DMSO; concentration giving half of maximal SEAP level induced with LPS. The source says: Mouse TLR4 Reporter Gene Assay
HEK-Blue™ mTLR4 cell line (Invivogen) is a stably co-transfected cell line which expresses mouse TLR4, MD2, CD14 and secretory SEAP reporter gene under the transcriptional regulation of an NF-κB response element. The TLR4 expression of the cell line has been already tested by RT-PCR, flow cytometry. Transfectants with stable expression were selected using the antibiotic HEK-Blue™ Selection. TLR signaling leads to the translocation of NF-κB and the activation of the promoter results in expression of the SEAP gene. TLR4-specific activation was assessed by determining the level of SEAP produced following incubation of the cells at 37° C. for 16-20 hours with each compound prepared in Examples and Reference examples in the presence of 0.1% (v/v) DMSO. The mouse TLR4 activity for the present compound was assessed by mouse TLR4 reporter gene assay, and the concentration of the compound concentration which produced half of the maximal level of SEAP induced with LPS was determined as EC50.

A further assay concerns spleen cell of the mouse. The experiment in a line: Test 4: T cell populations in spleen cells of immunized mice by flow cytometry. The format is in vivo. As to conditions: intramuscular with OVA, liposome formulation, compared with the negative control group. The method, then: The equal mixture prepared in Test 3 of ovalbumin (OVA) (2 mg/mL) and the formulation prepared in Example 6, Example 7, or Reference example 16 (containing 0.2 or 2 mg/mL the compound of Example 1, Example 2, or Reference example 9) was administered to a mouse (100 μL/mouse). The spleen cell of the mouse was prepared, OVA and Brefeldin A (eBioscience) were added the cell, and the cell was cultured overnight. The collected cell was stained with APC-labeled antimouse CD3e antibody (Invitrogen), PerCP-labeled antimouse CD4 antibody (BioLegend), and Fixable Viability Dye eFluor™ 520 (invitorgen), and fixed with Fixation/Permeabilization buffer (Invitrogen). The cell was treated with Permeabilization buffer (Invitrogen), and then stained with antibody cocktail BV421-labeled anti-IFN-γ antibody (BioLegend), PE-Cy7-labeled anti-IL-2 antibody (eBioscience), and PE-labeled TNF-α (BioLegend). The data were taken and analyzed with FACS Cant II (BD Biosciences) and FLOWJO software (TreeStar).
Separately, the spleen cell was stained with V450-labled antimouse CD3e antibody (invitrogen), Alexa Fluor™ 647-labeled antimouse CD8 antibody (MBL), PE-labeled H-2Kb OVA Tetramer-SIINFEKL (MBL), and Fixable Viability dye eFluor 520 (invitrogen). The data were taken and analyzed with FACS Cant II (BD Biosciences) and FLOWJO software (TreeStar).
Further separately, the spleen cell was stained with V450-labeled antimouse CD3e antibody (invitrogen), Alexa Fluor™ 647-labeled antimouse CD8 antibody (MBL), PE-Cy7-labeled antimouse CD44 antibody (Invitrogen), PerCP-Cy5.5-labeled antimouse CD62L antibody (Invitrogen), and Fixable Viability dye eFluor 520 (Invitrogen). The data were taken and analyzed with FACS Cant II (BD Biosciences) and FLOWJO software (TreeStar).
(In general: A flow cytometer gives signals particle by particle.)

Broadly, the EC50 is the concentration that produces a half-maximal response. A low value points to a more potent agent.

In the case of `CCCCCCCCCCC[C@H](CC(=O)NC1C(OC[C@@H](NC(=O)C[C@@H](CCCCCCCCCCC)OC(=O)CCCCCCCCC)C(=O)O)OC(CO)C(O)C1OC(=O)C[C@@H](CCCCCCCCCCC)OC(=O)CCCCCCCCc1ccccc1)OC(=O)CCCCCCCCC` (stereo partly drawn) [Example 1, (2R)-2-{[(3R)-3-(Decanoyloxy)tetradecanoyl]amino}-3-{[3-{[(3R)-3-(decanoyloxy)tetradecanoyl]amino}-5-hydroxy-6-(hydroxymethyl)-4-({(3R)-3-[(9-phenylnonanoyl)oxy]tetradecanoyl}oxy)oxan-2-yl]oxy}propanoic acid], the EC50 on mouse TLR4 is 14.3 nM. Moreover, in the assay with spleen cell of the mouse, the “percentage of CD8-positive effector memory T-lymphocyte” value was “significantly increased”, the “percentage of MHC-restricted OVA-specific CD8-positive T-lymphocyte (OVA tetramer-positive CD8T cell)” value (shortened to “percentage … (OVA tetramer-positive CD8T cell)”) is reported as “significantly increased” and the “percentage of OVA-specific type 1 helper T-cell” value was “significantly increased”.

In turn, `CCCCCCCCCCC[C@H](CC(=O)NC1C(OC[C@@H](NC(=O)C[C@@H](CCCCCCCCCCC)OC(=O)CCCCCCCCC)C(=O)O)OC(CO)C(OP(=O)(O)O)C1OC(=O)C[C@@H](CCCCCCCCCCC)OC(=O)CCCCCCCCc1ccccc1)OC(=O)CCCCCCCCC` (stereo partly drawn) [Reference example 9, (2R)-2-{[(3R)-3-(Decanoyloxy)tetradecanoyl]amino}-3-{[3-{[(3R)-3-(decanoyloxy)tetradecanoyl]amino}-6-(hydroxymethyl)-4-({(3R)-3-[(9-phenylnonanoyl)oxy]tetradecanoyl}oxy)-5-(phosphonooxy)oxan-2-yl]oxy}propanoic acid, reference compound] had an EC50 on mouse TLR4 of 28.4 nM. Moreover, in the assay with spleen cell of the mouse, the “percentage of CD8-positive effector memory T-lymphocyte” value was “significantly increased”, the “percentage … (OVA tetramer-positive CD8T cell)” value was “significantly increased” and the “percentage of OVA-specific type 1 helper T-cell” value was “significantly increased”.

In turn, `CCCCCCCCCCC[C@H](CC(=O)NC1C(OC[C@H](NC(=O)C[C@@H](CCCCCCCCCCC)OC(=O)CCCCCCCCC)C(=O)O)OC(CO)C(O)C1OC(=O)C[C@@H](CCCCCCCCCCC)OC(=O)CCCCCCCCc1ccccc1)OC(=O)CCCCCCCCC` (stereo partly drawn) [Example 2, (2S)-2-{[(3R)-3-(decanoyloxy)tetradecanoyl]amino}-3-{[3-{[(3R)-3-(decanoyloxy)tetradecanoyl]amino}-5-hydroxy-6-(hydroxymethyl)-4-({(3R)-3-[(9-phenylnonanoyl)oxy]tetradecanoyl}oxy)oxan-2-yl]oxy}propanoic acid] gave an EC50 at mouse TLR4 of 14.3 nM. For the same compound, in the assay on spleen cell of the mouse, the “percentage of CD8-positive effector memory T-lymphocyte” value was “significantly increased”, the “percentage … (OVA tetramer-positive CD8T cell)” value was “significantly increased” and the “percentage of OVA-specific type 1 helper T-cell” value is given as “significantly increased”.
